Laboratory results published in patent US20130123287A1, “CONTROL AGENT FOR SOFT ROT AND CONTROL METHOD FOR THE SAME” (ISHIHARA SANGYO KAISHA, LTD., priority 2010, published 2013).

Key:
[1] = system: bacteria causing the soft rot (Erwinia carotovora); experiment: Inhibition test of growth of bacteria causing soft rot, Reference Test Example 4; format: cell-based; settings: for formed colonies (growth state), grade: PSA medium, 27 degrees Celsius, 2 days; for inhibition of growth of Erwinia carotovora (in words): active ingredient concentration of 1,000 ppm
Excerpt: (§1) An inhibition test of the growth of bacteria causing the soft rot was done, when a control agent was directly applied to the bacteria causing the soft rot. A given volume of each pesticide of kresoxim-methyl (STROBY DF [trade name] manufactured by BASF), thiophanate methyl (Topsin M WP [trade name], manufactured by Nippon Soda Co., Ltd), boscalid (Cantus DF [trade name] manufactured by BASF), procymidone (Sumilex WP [trade name] manufactured by Sumitomo Chemical Agro Co., Ltd.) and streptomycin (Mycin Wettable powder [trade name] manufactured by Hokko Chemical Industry Co., Ltd.) was added together with a suspension of the bacteria causing the soft rot (Erwinia carotovora) to a preliminarily dissolved PSA culture medium (55 degrees Celsius) for subsequent thorough agitation, which was then spread on a plate for culturing at 27 degrees Celsius for 2 days, to examine the growth state. Subsequently, the formed colonies were examined according to the following three grades. • +: at the same level as the level of non-treated lot. Plus or minus: apparently less than the colonies of the non-treated lot. • −: almost no colonies observed.

[2] = system: soft rot of Chinese cabbage; experiment: Test for controlling soft rot of Chinese cabbage, Example 4 / Comparative Example 4 (field, cultivar Ouraku 60); format: in vivo; settings: 150 L/10 a sprayed onto planting holes before planting, 49 days after start
Excerpt: Frequency of the disease=[sigma(number of plants with the onset of the disease at each severity level*index of the onset of the disease)/(plants examined*4)]*100
Disease control value=[1-(frequency of the disease in the treated lot/frequency of the disease in the non-treated lot)]*100
• 0: No onset • 1: Onset in some of outer leaves (shippable) • 2: Onset in outer leaves and some of head leaves (by removing damaged parts, the resulting cabbage can be shipped as small cabbage but is ranked as grade B). • 3: Most of head leaves are inflicted with the onset of the disease or with severer damages (not shippable) • 4: Whole cabbage plant is inflicted with the onset of the disease and is dead.
442 g/lkresoxim-methyl (STROBY FLOWABLE [trade name], manufactured by BASF) was adjusted to 500 g ai/10a (0.5 g/m^2, 1131 ml Product/10a) as the amount of the active ingredient and to 150 L/10a as the volume of diluent water.
70% w/w thiophanate methyl (Topsin M WF [trade name], manufactured by Nippon Soda Co., Ltd.) was adjusted to 1000 g ai/10a (1 g/m^2, 1429 g Product/10a) as the amount of the active ingredient and to 150 L/10a as the volume of diluent water.
50% w/w boscalid (Cantus DF [trade name], manufactured by BASF) was adjusted to 500 g ai/10a (0.5 g/m^2; 1000 g Product/10a) as the amount of the active ingredient and to 150 L/10a as the volume of diluent water.
50% w/w procymidone (Sumilex WP [trade name], manufactured by Sumitomo Chemical Agro) was adjusted to 500 g ai/10a (0.5 g/m^2, 1000 g Product/10a) as the amount of the active ingredient and to 150 L/10a as the volume of diluent water.
400 g/l iprodione (Rovral 500 Aqua [trade name], manufactured by Bayer Crop Science Co., Ltd.) was adjusted to 500 g ai/10a (0.5 g/m^2, […] Product/10a) as the amount of the active ingredient and to 150 L/10a as the volume of diluent water.
200 g/l fludioxonil (Seibia FLOWABLE [trade name], manufactured by Syngenta Japan K.K.) was adjusted to 500 g ai/10a (0.5 g/m^2, 2500 ml Product/10a) as the amount of the active ingredient and to 150 L/10a as the volume of diluent water.
400 g/l mepanipyrim (Flupika PLOWABLE [trade name], manufactured by Nippon Soda Co., Ltd.) was adjusted to 500 g ai/10a (0.5 g/m^2, 1250 ml Product/10a) as the amount of the active ingredient and to 150 L/10a as the volume of diluent water.
After spreading an agricultural mulch-sheet and opening planting holes (diameter of about 5 cm) for permanent planting through the mulch-sheet, the spray solutions prepared as described above were sprayed onto the planting holes such that the amount of treated active ingredient of each spray solution was 0.5 g/m^2 (150 L per 10a), followed by air-drying; subsequently, seedlings of Chinese cabbage (cultivar: Ouraku 60) grown for 4 weeks in cell mold trays (128 holes/nursery box) were planted such that 30 seedlings were planted in each test lot having an area of 2.5 m^2 with two replications.
Preparation was performed by diluting a chemical solution (Agrimycin WP100 [trade name] manufactured by Pfizer) containing oxytetracycline at 1.5% and streptomycin sulfate salt at 18.8% with water to 1/1500.
In a field spread with the agricultural mulch-sheet, Chinese cabbage seedlings (cultivar: Ouraku 60) grown by the same method as in Example 4 were planted by the same method as in Example 4, for spraying the spray solution prepared above in (1) (at each spray volume of 300 L/10a) twice (28 days and 42 days after the planting of the seedlings) on the stems and leaves.
49 days after the start of the tests, all the plants in each lot were examined about the severity level of the disease to assess the frequency of the disease and the disease control value. Herein, the frequency of the disease and the disease control value were determined in the same manner as described above. Because soft rot is a disease with damages hardly controlled, herein, even a chemical at the level C determined by the tests of the effects can practically be used.

[3] = system: bacteria causing the soft rot (Erwinia carotovora); experiment: Inhibition test of growth of bacteria causing soft rot, Reference Test Example 5; format: cell-based; settings: for formed colonies (growth state), grade: PSA medium, 27 degrees Celsius, 2 days
Procedure: as §1, with “mepanipyrim (Flupika FL” for “kresoxim-methyl (STROBY DF”, “by” for “by BASF), thiophanate methyl (Topsin M WP [trade name], manufactured by”, “Soda” for “Soda Co., Ltd), boscalid (Cantus DF [trade name] manufactured by BASF), procymidone (Sumilex WP [trade name] manufactured by Sumitomo Chemical Agro”, “lot.” for “lot. Plus or minus: apparently less than the colonies of the non-treated lot. • −: almost no colonies observed.”
(§2) Plus or minus: apparently less than the colonies of the non-treated lot. • −: almost no colonies observed.

[4] = system: bacteria causing the soft rot (Erwinia carotovora); experiment: Inhibition test of growth of bacteria causing soft rot, Reference Test Example 6; format: cell-based; settings: for formed colonies (growth state), grade: PSA medium, 27 degrees Celsius, 3 days; for inhibition of growth of Erwinia carotovora (in words): active ingredient concentration of 1,000 ppm
Excerpt: An inhibition test of the growth of bacteria causing the soft rot was done, when a control agent was directly applied to the bacteria causing the soft rot. A given volume of each pesticide of fludioxonil (Seibia FL [trade name] manufactured by Syngenta Japan K.K.), iminoctadine albesilate salt (Bellkute WP [trade name], manufactured by Nippon Soda Co., Ltd.), iprodione (Rovral WP [trade name] manufactured by Bayer Crop Science Co., Ltd.), and streptomycin (Mycin Wettable powder [trade name] manufactured by Hokko Chemical Industry Co., Ltd.) was added together with a suspension of the bacteria causing the soft rot (Erwinia carotovora) to a preliminarily dissolved PSA culture medium (55 degrees Celsius) for subsequent thorough agitation, which was then spread on a plate for culturing at 27 degrees Celsius for 3 days, to examine the growth state. Subsequently, the formed colonies were examined according to the following three grades. • +: at the same level as the level of non-treated lot.
as §2

SMILES | formed colonies (growth state), grade ([1]; 100 ppm active ingredient) | formed colonies (growth state), grade ([1]; 500 ppm active ingredient) | formed colonies (growth state), grade ([1]; 1000 ppm active ingredient) | inhibition of growth of Erwinia carotovora (in words) [1] | Determination of effect ([2]; 500 g ai/10 a) | Determination of effect ([2]; 1000 g ai/10 a) | formed colonies (growth state), grade ([3]; 100 ppm active ingredient) | formed colonies (growth state), grade ([3]; 500 ppm active ingredient) | formed colonies (growth state), grade ([3]; 1000 ppm active ingredient) | inhibition of growth of Erwinia carotovora (in words) ([3]; active ingredient concentration of 1,000 ppm) | formed colonies (growth state), grade ([4]; 100 ppm active ingredient) | formed colonies (growth state), grade ([4]; 500 ppm active ingredient) | formed colonies (growth state), grade ([4]; 1000 ppm active ingredient) | inhibition of growth of Erwinia carotovora (in words) [4]
O=C(Nc1ccccc1-c1ccc(Cl)cc1)c1cccnc1Cl [Boscalid, 2-chloro-N-(4′-chlorobiphenyl-2-yl)nicotinamide] | +, + | +, + | +, + | never inhibited the growth | C (C: Effective at low level (21 to 40 disease control value)) |  |  |  |  |  |  |  |  | 
COC(=O)NC(=S)Nc1ccccc1NC(=S)NC(=O)OC [Thiophanate methyl, dimethyl=4,4′-(o-phenylene)bis(3-thioallophanate)] | +, + | +, + | +, + | never inhibited the growth |  | B (B: Effective (41 to 60 disease control value)) |  |  |  |  |  |  |  | 
CC#Cc1cc(C)nc(Nc2ccccc2)n1 [Mepanipyrim, N-(4-methyl-6-prop-1-ynylpyrimidin-2-yl)aniline] |  |  |  |  | B (B: Effective (41 to 60 disease control value)) |  | +, + | +, + | +, + | never inhibited the growth |  |  |  | 
CC(C)NC(=O)N1CC(=O)N(c2cc(Cl)cc(Cl)c2)C1=O [Iprodione, 3-(3,5-dichlorophenyl)-N-isopropyl-2,4-dioxoimidazolizine-1-carboxamide] |  |  |  |  | B (B: Effective (41 to 60 disease control value)) |  |  |  |  |  | +, + | +, + | +, + | never inhibited the growth
N#Cc1c[nH]cc1-c1cccc2c1OC(F)(F)O2 [Fludioxonil, 4-(2,2-difluoro-1,3-benzodioxol-4-yl)pyrrole-3-carbonitrile] |  |  |  |  | C (C: Effective at low level (21 to 40 disease control value)) |  |  |  |  |  | +, + | +, + | +, + | never inhibited the growth
CC12CC1(C)C(=O)N(c1cc(Cl)cc(Cl)c1)C2=O (stereo not drawn) [Procymidone, N-(3,5-dichlorophenyl)-1,2-dimethylcyclopropane-1,2-dicarboximide] | +, + | +, + | +, + | never inhibited the growth | A (A: Highly effective (61 or larger disease control value)) |  |  |  |  |  |  |  |  | 
